Test results as given in ChEMBL document CHEMBL3885881, “DrugMatrix”.

Species on record: Rattus norvegicus
Format: toxicity, organism-based, Sprague-Dawley
Conditions: in vivo, po, 24 h, route oral GAVAGE, time 1 day, vehicle .5 % CMC; for ABSOLUTE EOSINOPHIL / ABSOLUTE LYMPHOCYTE / ABSOLUTE MONOCYTE / BASOPHIL / EOSINOPHIL / ERYTHROCYTE COUNT / HEMATOCRIT / HEMOGLOBIN / LEUKOCYTE COUNT / LYMPHOCYTE / MEAN CORPUSCULAR HEMOGLOBIN / MEAN CORPUSCULAR HEMOGLOBIN CONCENTRATION / MEAN CORPUSCULAR VOLUME / MONOCYTE / NEUTROPHIL / PLATELET COUNT / ABSOLUTE BASOPHIL: tissue Blood; for ALANINE AMINOTRANSFERASE / ALBUMIN / ALKALINE PHOSPHATASE / ASPARTATE AMINOTRANSFERASE / BLOOD UREA NITROGEN / CARBON DIOXIDE / CHLORIDE / CHOLESTEROL / CREATINE PHOSPHOKINASE / CREATININE / GLUCOSE / LACTATE DEHYDROGENASE / LIPASE / PHOSPHORUS / POTASSIUM / SODIUM / TOTAL BILIRUBIN / TOTAL PROTEIN / URIC ACID: tissue Plasma
Description: DrugMatrix - Regimen: Single

`CN(C)CCN(Cc1cccs1)c1ccccn1` gave an ABSOLUTE EOSINOPHIL (0 mg/kg, dose level Control) of 47.5 cells/µL, an ABSOLUTE LYMPHOCYTE (0 mg/kg, dose level Control) of 8340 cells/µL and an ABSOLUTE MONOCYTE (0 mg/kg, dose level Control) of 260 cells/µL. For the same compound, the BASOPHIL (0 mg/kg, dose level Control) was 0.33%, the EOSINOPHIL (0 mg/kg, dose level Control) was 0.45% and the “ERYTHROCYTE COUNT” value (0 mg/kg, dose level Control) was 6.31 x10E6/uL. The HEMATOCRIT (0 mg/kg, dose level Control) was 42.88%, the HEMOGLOBIN (0 mg/kg, dose level Control) was 13 G/DL and the “LEUKOCYTE COUNT” value (0 mg/kg, dose level Control) was 10.38 x10E3/uL. For the same compound, the LYMPHOCYTE (0 mg/kg, dose level Control) was 80.53%, the “MEAN CORPUSCULAR HEMOGLOBIN” value (0 mg/kg, dose level Control) was 20.6 pg and the “MEAN CORPUSCULAR HEMOGLOBIN CONCENTRATION” value (0 mg/kg, dose level Control) was 30.3 G/DL. The “MEAN CORPUSCULAR VOLUME” value (0 mg/kg, dose level Control) was 67.9 fL, the MONOCYTE (0 mg/kg, dose level Control) was 2.4% and the NEUTROPHIL (0 mg/kg, dose level Control) was 15.08%. The “PLATELET COUNT” value (0 mg/kg, dose level Control) was 1192.5 x10E3/uL, the “ALANINE AMINOTRANSFERASE” value (0 mg/kg, dose level Control) was 47 u/L and the ALBUMIN (0 mg/kg, dose level Control) was 3.55 G/DL. For the same compound, the “ALKALINE PHOSPHATASE” value (0 mg/kg, dose level Control) was 460.75 u/L, the “ASPARTATE AMINOTRANSFERASE” value (0 mg/kg, dose level Control) was 71.75 u/L and the “BLOOD UREA NITROGEN” value (0 mg/kg, dose level Control) was 13.75 mg/dL. For the same compound, the “CARBON DIOXIDE” value (0 mg/kg, dose level Control) was 36.75 mmol/L, the CHLORIDE (0 mg/kg, dose level Control) was 107.25 MEQ/L and the CHOLESTEROL (0 mg/kg, dose level Control) was 85.25 mg/dL. For the same compound, the “CREATINE PHOSPHOKINASE” value (0 mg/kg, dose level Control) was 373 u/L, the CREATININE (0 mg/kg, dose level Control) was 0.67 mg/dL and the GLUCOSE (0 mg/kg, dose level Control) was 173.25 mg/dL. The “LACTATE DEHYDROGENASE” value (0 mg/kg, dose level Control) was 241.25 u/L, the LIPASE (0 mg/kg, dose level Control) was 39.25 u/L and the PHOSPHORUS (0 mg/kg, dose level Control) was 13.5 mg/dL. For the same compound, the POTASSIUM (0 mg/kg, dose level Control) was 6.9 MEQ/L, the SODIUM (0 mg/kg, dose level Control) was 153 MEQ/L and the “TOTAL BILIRUBIN” value (0 mg/kg, dose level Control) was 0.3 mg/dL. The “TOTAL PROTEIN” value (0 mg/kg, dose level Control) was 6.05 G/DL, the “URIC ACID” value (0 mg/kg, dose level Control) was 1.07 mg/dL and the ABSOLUTE BASOPHIL (10 mg/kg, dose level Low) was 50 cells/µL. The ABSOLUTE EOSINOPHIL (10 mg/kg, dose level Low) was 57.5 cells/µL, the ABSOLUTE LYMPHOCYTE (10 mg/kg, dose level Low) was 6900 cells/µL and the ABSOLUTE MONOCYTE (10 mg/kg, dose level Low) was 160 cells/µL. The BASOPHIL (10 mg/kg, dose level Low) was 0.62%, the EOSINOPHIL (10 mg/kg, dose level Low) was 0.68% and the “ERYTHROCYTE COUNT” value (10 mg/kg, dose level Low) was 6.69 x10E6/uL. The HEMATOCRIT (10 mg/kg, dose level Low) was 45.23%, the HEMOGLOBIN (10 mg/kg, dose level Low) was 13.75 G/DL and the “LEUKOCYTE COUNT” value (10 mg/kg, dose level Low) was 8.71 x10E3/uL. The LYMPHOCYTE (10 mg/kg, dose level Low) was 79.03%, the “MEAN CORPUSCULAR HEMOGLOBIN” value (10 mg/kg, dose level Low) was 20.57 pg and the “MEAN CORPUSCULAR HEMOGLOBIN CONCENTRATION” value (10 mg/kg, dose level Low) was 30.38 G/DL. The “MEAN CORPUSCULAR VOLUME” value (10 mg/kg, dose level Low) was 67.67 fL, the MONOCYTE (10 mg/kg, dose level Low) was 1.82% and the NEUTROPHIL (10 mg/kg, dose level Low) was 16.77%. The “PLATELET COUNT” value (10 mg/kg, dose level Low) was 1228.25 x10E3/uL, the “ALANINE AMINOTRANSFERASE” value (10 mg/kg, dose level Low) was 48.75 u/L and the ALBUMIN (10 mg/kg, dose level Low) was 3.7 G/DL. For the same compound, the “ALKALINE PHOSPHATASE” value (10 mg/kg, dose level Low) was 472.25 u/L, the “ASPARTATE AMINOTRANSFERASE” value (10 mg/kg, dose level Low) was 65.25 u/L and the “BLOOD UREA NITROGEN” value (10 mg/kg, dose level Low) was 13 mg/dL. For the same compound, the “CARBON DIOXIDE” value (10 mg/kg, dose level Low) was 38.5 mmol/L, the CHLORIDE (10 mg/kg, dose level Low) was 107.25 MEQ/L and the CHOLESTEROL (10 mg/kg, dose level Low) was 86.75 mg/dL. For the same compound, the “CREATINE PHOSPHOKINASE” value (10 mg/kg, dose level Low) was 250.75 u/L, the CREATININE (10 mg/kg, dose level Low) was 0.67 mg/dL and the GLUCOSE (10 mg/kg, dose level Low) was 167 mg/dL. For the same compound, the “LACTATE DEHYDROGENASE” value (10 mg/kg, dose level Low) was 129.25 u/L, the LIPASE (10 mg/kg, dose level Low) was 38.5 u/L and the PHOSPHORUS (10 mg/kg, dose level Low) was 12.45 mg/dL. For the same compound, the POTASSIUM (10 mg/kg, dose level Low) was 6.83 MEQ/L, the SODIUM (10 mg/kg, dose level Low) was 153.75 MEQ/L and the “TOTAL BILIRUBIN” value (10 mg/kg, dose level Low) was 0.3 mg/dL. The “TOTAL PROTEIN” value (10 mg/kg, dose level Low) was 6.32 G/DL, the “URIC ACID” value (10 mg/kg, dose level Low) was 0.98 mg/dL and the ABSOLUTE BASOPHIL (100 mg/kg, dose level High) was 130 cells/µL. The ABSOLUTE EOSINOPHIL (100 mg/kg, dose level High) was 55 cells/µL, the ABSOLUTE LYMPHOCYTE (100 mg/kg, dose level High) was 9590 cells/µL and the ABSOLUTE MONOCYTE (100 mg/kg, dose level High) was 430 cells/µL. For the same compound, the BASOPHIL (100 mg/kg, dose level High) was 0.95%, the EOSINOPHIL (100 mg/kg, dose level High) was 0.5% and the “ERYTHROCYTE COUNT” value (100 mg/kg, dose level High) was 6.9 x10E6/uL. The HEMATOCRIT (100 mg/kg, dose level High) was 46.1%, the HEMOGLOBIN (100 mg/kg, dose level High) was 14.12 G/DL and the “LEUKOCYTE COUNT” value (100 mg/kg, dose level High) was 11.89 x10E3/uL. The LYMPHOCYTE (100 mg/kg, dose level High) was 80.6%, the “MEAN CORPUSCULAR HEMOGLOBIN” value (100 mg/kg, dose level High) was 20.48 pg and the “MEAN CORPUSCULAR HEMOGLOBIN CONCENTRATION” value (100 mg/kg, dose level High) was 30.62 G/DL. For the same compound, the “MEAN CORPUSCULAR VOLUME” value (100 mg/kg, dose level High) was 66.9 fL, the MONOCYTE (100 mg/kg, dose level High) was 3.62% and the NEUTROPHIL (100 mg/kg, dose level High) was 12.9%. The “PLATELET COUNT” value (100 mg/kg, dose level High) was 1177.75 x10E3/uL, the “ALANINE AMINOTRANSFERASE” value (100 mg/kg, dose level High) was 102.25 u/L and the ALBUMIN (100 mg/kg, dose level High) was 3.6 G/DL. The “ALKALINE PHOSPHATASE” value (100 mg/kg, dose level High) was 460.75 u/L, the “ASPARTATE AMINOTRANSFERASE” value (100 mg/kg, dose level High) was 150.5 u/L and the “BLOOD UREA NITROGEN” value (100 mg/kg, dose level High) was 13.5 mg/dL. The “CARBON DIOXIDE” value (100 mg/kg, dose level High) was 37.75 mmol/L, the CHLORIDE (100 mg/kg, dose level High) was 108 MEQ/L and the CHOLESTEROL (100 mg/kg, dose level High) was 61.5 mg/dL. For the same compound, the “CREATINE PHOSPHOKINASE” value (100 mg/kg, dose level High) was 211.25 u/L, the CREATININE (100 mg/kg, dose level High) was 0.67 mg/dL and the GLUCOSE (100 mg/kg, dose level High) was 169.5 mg/dL. The “LACTATE DEHYDROGENASE” value (100 mg/kg, dose level High) was 94.25 u/L, the LIPASE (100 mg/kg, dose level High) was 24.75 u/L and the PHOSPHORUS (100 mg/kg, dose level High) was 13.18 mg/dL. For the same compound, the POTASSIUM (100 mg/kg, dose level High) was 7.25 MEQ/L, the SODIUM (100 mg/kg, dose level High) was 154.25 MEQ/L and the “TOTAL BILIRUBIN” value (100 mg/kg, dose level High) was 0.3 mg/dL. The “TOTAL PROTEIN” value (100 mg/kg, dose level High) was 6.08 G/DL and the “URIC ACID” value (100 mg/kg, dose level High) was 1.07 mg/dL.
